This is an account of results in patent US9650365B2 (UNIVERSITY OF CONNECTICUT, priority 2014, dated 2017).

Test [1] deals with Hh signaling (Gli1 mRNA) in C3H10T1/2 cells. The experiment in a line: Down-regulation of endogenous Gli1 mRNA in Hh-dependent C3H10T1/2 cells. The note with it: Mus musculus. It counts as cell-based, mouse. In short, it runs like this: (§1)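 Hh pathway activated in C3H10T1/2 cells with exogenous agonist (recombinant Hh ligand or small molecule) alongside inhibitor; Gli1 mRNA measured by qPCR. Concentration-dependent Gli1 reduction also assessed in murine BCC ASZ cells; values mean±SEM, ≥2 experiments in triplicate.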

The test system of test [2] is Hh signaling (Gli1 mRNA) in ASZ cells. The experiment in a line: Down-regulation of endogenous Gli1 mRNA in ASZ cells. The format is cell-based, murine. The note with it: Mus musculus. In short, it runs like this:
as §1

Test [3] relates to tube formation in HUVECs. The experiment in a line: HUVEC tube formation on Matrigel. It counts as cell-based, human.
Test [4] has as its system Gli1 in DAOYs (cultured MB). Nature of the test: Down-regulation of Gli1 in DAOY cells. The note with it: Homo sapiens. The format is cell-based. From the text:
(§2) Additional analogues have been synthesized and characterized in the assays described above.

For test [5], the system named is Gli1 in M2s. Nature of the test: Down-regulation of Gli1 in M2s. The format is cell-based.
From the text: as §2

Test [6] concerns hedgehog (Hh) signaling pathway. The note with it: background; cited from earlier work.
Test [7] deals with angiogenesis. The note with it: background; cited from earlier work.
The target of test [8] is T1, BCRP (Homo sapiens, UniProt Q9UNQ0).
T1 construct: expressed in transfected cells; host or cells: Madin Darby canine kidney cells (MDCK)
T1 sequence (Q9UNQ0 1-655): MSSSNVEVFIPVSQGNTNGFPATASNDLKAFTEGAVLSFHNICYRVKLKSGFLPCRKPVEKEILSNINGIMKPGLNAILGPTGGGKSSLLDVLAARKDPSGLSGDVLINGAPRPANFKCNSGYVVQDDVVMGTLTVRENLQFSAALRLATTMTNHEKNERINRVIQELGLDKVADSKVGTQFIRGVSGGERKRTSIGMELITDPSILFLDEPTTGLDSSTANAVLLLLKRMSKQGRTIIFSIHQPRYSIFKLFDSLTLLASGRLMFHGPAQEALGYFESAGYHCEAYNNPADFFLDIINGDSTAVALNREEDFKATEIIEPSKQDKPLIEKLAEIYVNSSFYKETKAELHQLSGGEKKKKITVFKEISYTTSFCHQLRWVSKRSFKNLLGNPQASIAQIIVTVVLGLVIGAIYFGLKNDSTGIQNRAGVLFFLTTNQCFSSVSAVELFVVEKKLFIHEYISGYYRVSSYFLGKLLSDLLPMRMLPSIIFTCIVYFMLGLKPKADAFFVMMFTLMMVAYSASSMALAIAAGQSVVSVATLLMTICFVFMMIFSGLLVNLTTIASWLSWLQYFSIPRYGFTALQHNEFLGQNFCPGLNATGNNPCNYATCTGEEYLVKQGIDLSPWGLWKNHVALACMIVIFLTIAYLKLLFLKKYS
The note with it: read-out: IC50 BCRP inhibition; cited from earlier work.

Test [9] relates to Hh-dependent MB. The note with it: oral administration; cited from earlier work.
[10] abbreviates: C3H 10T1/2, read-out: Hh inhibition.

Structures are written as SMILES. Several values for one entry are separate records, joined by “and”; a condition that tells them apart may be missing. Equal values may be shown once. Read-outs that look alike come from different tables or passages of the source.

In general, inhibition refers to the drop in the measured response relative to a control, in per cent.

With `CCC(C)n1ncn(-c2ccc(N3CCN(c4ccc(OCC5COC(Cn6cncn6)(c6ccc(Cl)cc6Cl)O5)cc4)CC3)cc2)c1=O` (stereo not shown) [ITZ, itraconazole, reference compound], the IC50 amounted to 0.074 µM in test [1] (C3H 10T1/2, 24 h, read-out: IC50 (μM) C3H10T1/2, 24 hr incubation); 0.074 ± 0.02 µM in [1] (C3H 10T1/2, read-out: Hh pathway inhibition C3H10T1/2, down-regulation of endogenous Gli1 mRNA); 0.07 ± 0.02 µM in test [1] (C3H 10T1/2, read-out: IC50 (μM) Gli1-C3Hs); 0.074 µM in test [1] (C3H 10T1/2, read-out: IC50 down-regulation of Gli1, C3H10T1/2 cells); 0.14 ± 0.02 µM in test [2] (48 h, read-out: IC50 (μM) ASZ, 48 hr incubation); 0.14 ± 0.02 µM in test [2] (read-out: Hh pathway inhibition ASZ, down-regulation of endogenous Gli1 mRNA). Further, the IC50 in test [2] (read-out: IC50 (μM) Gli1-ASZs) is 0.14 ± 0.02 µM; in test [4] it was 0.6 ± 0.08 µM; in test [5], 0.3 µM and 0.52 µM; in test [6] it was 690 nM; in [7], 160 nM; in test [8] it was around 1000 nM. The inhibition at 1 µM in [1] (C3H 10T1/2, read-out: % Hh inhibition) is 96%; in test [1] (setting [10]) it was around 98%. The inhibition at 0.5 µM in test [1] (setting [10]) was around 70%. Moreover, the “inhibition of tube formation” value in test [3] (1 μM, 16 h) is “significant inhibition”; in [3] (0.1 and 1 μM, 24 hour), “significantly inhibited tube formation”. For the same compound, the “inhibition of tube formation (overall tube length and total tube junctions)” value in test [3] (10 μM, 16 h) is recorded as “comparable to that of the positive control suramin”. The survival result in [9] is on record as “increased survival”.
